# Measurements as given in patent US20180256537A1, “METHODS FOR SURVIVAL AND REJUVENATION OF DERMAL FIBROBLASTS USING PKC ACTIVATORS” (priority 2015, published 2018).
# Where two headings read alike, the source gives them in different places.
# Assays:
# [1] = target: PKC; conditions: Table 1, bryologs; read-out: PKC Affin; cited from earlier work
# [2] = test system: human skin fibroblasts; assay: Protection of human skin fibroblasts under serum starvation (microscopy); assay type: cell-based; conditions: for viability and cellular integrity, with or without Erk inhibitor: serum deprived culture 5 days
# Experimental: Skin fibroblast samples AG09555 (isolated and banked from a healthy person) and AG04560 (isolated and banked from a healthy person; Aging Cell Culture Repository of the National Institute on Aging) were obtained from the Coriell Institute for Medical Research (Camden, N.J.). Fresh fibroblasts were isolated from a skin punch biopsy (2-3 mm, upper arm) from a healthy subject (0078F45). The skin biopsy was conducted by qualified personnel under the supervision of Dr. Shirley Neitch with IRB approval of Marshall University (Huntington, W. Va.). All subjects signed informed consent forms under Marshal University rules and regulations. The method for isolating fibroblasts from skin biopsies was similar to the method previously described (Zhao et al, 2002; Khan and Alkon, 2006).
# (§1) Primary skin fibroblasts isolated from skin biopsies were maintained in Dulbecco's Modified Eagle Medium (DMEM) with low glucose (Invitrogen, Grand Island, N.Y.) supplemented with 10% FBS in 6-well culture dishes (37° C., 5% CO2, 90% humidity) until the cells reached 90-100% confluence. Cells were cultured in completely serum-free medium to simulate stress conditions. After culture in serum-free media for 24 hours, cells were treated with vehicle, 0.3 nM bryostatin1, or 5 nM picolog. […] Nanomolar concentrations of picolog were previously found to be effective for cellular activation (Khan et al, 2009). The condition of the cultured skin fibroblasts was monitored with an inverted cell culture microscope (Westover Digital AMID Model 2000, Westover Scientific, Bothell, Wash.), controlled by a computer and images were captured with image acquisition software (Micron 2.0.0, Westover Scientific).
# [3] = test system: Erk1/2; assay: Immunoblot analysis of Erk activation in serum-deprived fibroblasts; assay type: cell-based, human
# Experimental: as §1
# (§2) Protein lysates (20 μg of protein each) were boiled in 2× Laemmli buffer for 10 min and separated using a 10% […] Tris-Glycine gel (or 4-20% gradient Tris-Glycine gel for caspase-8). […] Signal intensities of the images were recorded in the ImageQuant RT-ECL (GE Life Sciences, Piscataway, N.J.) and densitometric quantification was performed using the IMAL software (Blanchette Rockefeller Neurosciences Institute, Morgantown, W. Va.). […]
# [4] = test system: caspase-8; assay: Immunoblot analysis of caspase-8 expression in dermal fibroblasts; assay type: cell-based, human
# Experimental: as §1, §2
# [5] = test system: human skin equivalents (HSEs); assay: Cell survival within human skin equivalents (HSEs); assay type: cell-based
# Experimental: The Clonetics™ keratinocyte system containing normal adult human epidermal keratinocytes (NHEK) was used as source of epidermal keratinocytes (Lonza, Walkersville, Md.). Human adult epidermal keratinocyte cells were cultured in keratinocyte basal medium supplemented with appropriate growth factors (Clonetics KGM-Gold™ BulletKit™ [cat#00192060] contains one 500 ml bottle of keratinocyte basal medium-gold supplemented with bovine pituitary extract (BPE), 2 ml; hEGF, 0.5 ml; insulin, 0.5 ml; hydrocortisone, 0.5 ml; transferrin, 0.5 ml; epinephrine, 0.25 ml; GA-1000, 0.5 ml) in T25 culture flasks in an incubator at 37° C., 5% CO2, and 90% humidity. The growth medium was changed the day after seeding and every other day thereafter. Keratinocytes were used up to 18 population doublings. All cell preparations tested negative for mycoplasma, bacteria, yeast, and fungi. The condition of the skin keratinocytes was monitored with an inverted cell culture microscope (Westover Digital AMID Model 2000, Westover Scientific), controlled by a computer and images were captured using image acquisition software (Micron 2.0.0, Westover Scientific).
# HSEs have been used commercially as clinical skin substitutes (Orcel® from FortiCell Bioscience, Englewood Cliffs, N.J.; FDA approved in 2001/2008; Apligraf® from Genzyme Tissue Repair Corporation, Cambridge, Mass., FDA approved in 2007) and as in vitro models for skin biochemical tests and toxicity tests (Mertsching et al, 2008; Zhang and Michniak-Kohn, 2012). We engineered an HSE composed of both epidermal and dermal layers; keratinocytes and fibroblasts were utilized to prepare the bilayer structures (Shevchenko et al, 2010). Dermal fibroblasts were cultured on a 6-well collagen-coated surface (Biocoat Cell Environment, Becton Dickinson, Bedford, UK) or BD BIOCOAT™ plates (BD Biosciences, San Jose, Calif.). Fibroblast cells were maintained in DMEM with low glucose (Invitrogen) supplemented with 10% FBS, and were grown to 100% confluence. Culture medium was removed and the cells were washed three times with DMEM (without serum) to remove all growth factors. Previously cultured epidermal keratinocytes were added to the fibroblasts as the second layer (FIG. 1). […] The condition of the HSEs was monitored with an inverted cell culture microscope (Westover Digital AMID Model 2000, Westover Scientific), controlled by a computer and images were captured via image acquisition software (Micron 2.0.0, Westover Scientific).
# [6] = test system: matrix metalloproteins 1, 3, 9, 10 and 11 (MMP's); conditions: cited from earlier work
# [7] = cited from earlier work
# [8] = cited from earlier work; remark: listed apart in the source
# [9] = test system: PKC; conditions: cited from earlier work
# [10] = target: PKC; conditions: [3H] phorbol dibutyrate competition; cited from earlier work
# [11] = test system: squamous cell carcinoma and melanoma; conditions: used topically; cited from earlier work
# [12] = test system: NCI 60 cell line screen; conditions: cited from earlier work
# [13] = test system: Erk1/2; conditions: RasGRP3-dependent manner; cited from earlier work
# [14] = test system: human skin fibroblasts; assay: Cell viability test by MTT assay; assay type: cell-based; conditions: 5 nM, serum starvation 15 days, versus untreated cells
# Experimental: as §1
# Cell viability assay was conducted by measuring 3-(4,5-dimethylthiazol-2-yl)-2,5-diphenyltetrazolium (MTT) bromide dye absorbance. After treatment, cells were labeled with MTT and dissolved by adding SDS-HCl solution to each well and mixing thoroughly with a pipette tip. Absorbance was read at 570 nm using a microplate reader. Data were presented in terms of relative cell viability.
# [15] = target: protein kinase C; conditions: (−)-enantiomer; cited from earlier work
compound,measurement,setting,value
CCCCCCCC(=O)O[C@H]1/C(=C/C(=O)OC)C[C@H]2C[C@H](CO)OC(=O)C[C@H](O)C[C@@H]3CCC[C@H](C[C@@H]4CCO[C@H](/C=C/C(C)(C)[C@]1(O)O2)O4)O3 [Analog 1],Ki,[1],0.25 nM
CCC/C=C/C=C/C(=O)O[C@H]1/C(=C/C(=O)OC)C[C@H]2C[C@H]([C@@H](C)O)OC(=O)C[C@H](O)C[C@@H]3C[C@H](OC(C)=O)C(C)(C)C(O)(C[C@@H]4C/C(=C/C(=O)OC)C[C@H](/C=C/C(C)(C)[C@]1(O)O2)O4)O3 [Bryostatin-1],cellular integrity of freshly isolated fibroblasts,"[2]; 0.3 nM, 5 days serum-free, 6-well plates",healthy and appear to be normal
same,percentage of viable fibroblasts,"[2]; 0.3 nM, 5 days serum-free, treated versus control group",lower percentage of viable fibroblast in the control group
same,loss of dermal fibroblast cells,"[2]; 0.3 nM, 15 days serum free culture",no significant loss of dermal fibroblast cells
same,structural integrity and number of viable cells,"[2]; 0.3 nM, 35 days serum free culture, versus control group","greater structural integrity and a higher number of live, viable cells"
same,cellular integrity of collagen matrix supported fibroblasts,[2]; 25 days serum-starved,maintains the cellular integrity
same,"viability and cellular integrity, with or without Erk inhibitor",[2],showed the greatest viability and good cellular integrity
same,survival of banked skin fibroblasts,"[2]; sub-nanomolar amounts, 20 days serum starved",prevented the death of human skin fibroblasts
same,activation of Erk1/2 (p-Erk/Erk),"[3]; 0.3 nM, serum-free conditions",induced activation of Erk1/2
same,"caspase-8 expression levels, time course",[4]; after 3 days of treatment,greatest decrease
same,caspase-8 expression levels in cell lysate,[4]; treated versus control fibroblasts,reduced expression levels of caspase-8
same,protective effect in HSEs over time,[5]; 9 days versus 12 days in culture,decreases as a function of time
same,fibroblast survival and viability in HSEs versus untreated,[5]; single dose and two dose treated HSEs,significantly greater
same,fibroblast cell death in HSEs,"[5]; single treatment 0.3 nM, versus untreated HSEs",showed fewer dead fibroblast cells overall
same,"survival of fibroblast cells in HSEs, two doses versus single dose",[5]; two doses (0.3 nm) versus single 0.3 nM dose,greater than fibroblasts in HSEs receiving a single 0.3 nM dose
same,"production of matrix metalloproteins 1, 3, 9, 10 and 11",[6],inhibits the production
same,toxicity,[7]; 20 μg/week,no toxicity
same,adverse effect,[7]; more than 35 μg/week,may be associated with muscle pain
CCC/C=C/C=C/C(=O)O[C@H]1/C(=C/C(=O)OC)C[C@H]2C[C@H]([C@@H](C)O)OC(=O)C[C@H](O)C[C@@H]3C[C@H](OC(C)=O)C(C)(C)[C@](O)(C[C@@H]4C/C(=C/C(=O)OC)C[C@H](/C=C/C(C)(C)[C@]1(O)O2)O4)O3 [Bryostatin-1],time detectable in the blood,[8]; after a single injection,14 days
same,half-life (t1/2) in the blood stream,[8]; blood,1 h
same,crossing of the blood-brain barrier,[8]; in vivo,crosses the blood-brain barrier
same,share of initial dose in the blood,"[8]; intravenous injection, at 100 hrs",1%
"CCC1CC1CC1CC1CC1CC1CC1CC1CC1CC1CC1CC1CCC(=O)OC (centres unmarked) [DHA-CP6, cyclopropanated docosahexaenoic acid methyl ester]",effective concentration,[9],10 nM
"CC1=C[C@]23C(=O)[C@@H](C=C(COC(=O)c4ccccc4)[C@@H](O)[C@]2(O)[C@H]1OC(=O)c1ccccc1)[C@H]1[C@@H](C[C@H]3C)C1(C)C [Ingenol 3,20-dibenzoate]",Ki,[10],240 nM
C/C=C(/C)C(=O)O[C@H]1C(C)=C[C@]23C(=O)[C@@H](C=C(CO)[C@@H](O)[C@]12O)[C@H]1[C@@H](C[C@H]3C)C1(C)C [Ingenol-3-angelate],antitumor activity,[11],exhibits antitumor activity
CC1=CC[C@H](C)C(C)(C)[C@@H]1/C=C/C(C)=C/CC[C@@]1(CO)[C@H](CCCO)/C(=C(/C)C=O)CC[C@]1(C)O [Iripallidal],GI50 (concentration required to inhibit growth by 50%),[12],micromolar to nanomolar range
same,phosphorylation of Erk1/2,[13],induces phosphorylation of Erk1/2
COc1cccc(-c2cc(=O)c3ccccc3o2)c1N [PD98059],"viability and cellular integrity, with or without Erk inhibitor",[2],lowered the cell protective effects of bryostatin-1
same,effect on bryostatin-1 induced Erk activation,[3]; PD98059 30 μM with bryostatin-1,significantly blocked
CCCCCCCC(=O)O[C@H]1/C(=C/C(=O)OC)CC2C[C@H](CO)OC(=O)C[C@H](O)C[C@@H]3CCC[C@H](C[C@@H]4CCO[C@H](/C=C/C(C)(C)[C@]1(O)O2)O4)O3 [picolog],cell survival of human skin fibroblasts,"[2]; 5 nM, serum free, 15 days",increased cell survival
same,relative cell viability (MTT),[14],increased the relative viability of fibroblast cells
Octylindolactam V,EC50,[15],29 nM
